Entries after “also recorded” stand apart in the source; their conditions may differ.
Test system: HCoV-229E and three SARS-CoV-2 variants
Experiment: Antiviral effect against all tested coronavirus variants (text comparisons)
Assay type: cell-based, human coronavirus
Conditions: for antiviral effect against all tested coronavirus variants (in words): HCoV-229E and three SARS-CoV-2 variants

Row | SMILES | antiviral effect against all tested coronavirus variants (in words) | other results
1 | Cc1cccc(OCC(=O)OC[C@H]2O[C@@H](n3ccc(NO)nc3=O)[C@H](O)[C@@H]2O)c1 [SN_22, 5′-O-(3-Methylphenoxy)acetyl-N4-hydroxycytidine] | highest activity | 
2 | O=C(OC[C@H]1O[C@@H](n2ccc(NO)nc2=O)[C@H](O)[C@@H]1O)C1(c2ccccc2)CC1 [SN_20, 5′-O-(1-Phenylcyclopropanoyl-1-carbonyl)-N4-hydroxycytidine] | no antiviral effect; also recorded: lowest activity | 
3 | COc1cccc(CCC(=O)OC[C@H]2O[C@@H](n3ccc(NO)nc3=O)[C@H](O)[C@@H]2O)c1 [SN_23, 5′-O-3-(3-Methoxyphenyl)propanoyl-N4-hydroxycytidine] |  | times higher antiviral effect than SN_15 and SN_16 (compared with SN_15 and SN_16): 2–6 times
4 | O=C(Cc1ccccc1F)OC[C@H]1O[C@@H](n2ccc(NO)nc2=O)[C@H](O)[C@@H]1O [SN_17, 5′-O-(2-Fluorophenyl)acetyl-N4-hydroxycytidine] |  | fold increase in antiviral activity compared to SN_18 (compared with 4-fluoro substituted conjugate SN_18): ≥ 2 fold
